Experimental findings from patent US20220002279A1, “NOVEL IMIDAZOLE DERIVATIVE” (priority 2018, published 2022) are described below.

For orientation: MIC means the smallest concentration in the dilution series that meets the test's criterion for growth inhibition. The IC50 is the point on the concentration scale where inhibition reaches its midpoint.

SMILES strings stand for the structures. Converted amounts (≈) assume the structure as drawn. Where two headings read alike, the source gives them in different places.

Assay [1] has as its system Pseudomonas aeruginosa strain ATCC27853. Briefly: Antimicrobial activity, MIC by broth microdilution. The conditions noted are these: ATCC27853, 18 h, cation-adjusted Mueller-Hinton broth, about 5×10^5 CFU/mL, 35° C., about 18 hours, read-out: MIC Pseudomonas aeruginosa ATCC27853. It is filed as cell-based. In outline:
(§1)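 CLSI-based broth microdilution in cation-adjusted Mueller-Hinton broth, inoculum about 5×10^5 CFU/mL from overnight heart infusion agar culture. Incubation 35° C. about 18 h; MIC is the lowest concentration with no visible growth.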
Background: In broth dilution the organism is exposed to a series of concentrations in liquid medium.

Assay [2] deals with Klebsiella pneumoniae strain ATCC13883. The experiment in a line: Antimicrobial activity, MIC by broth microdilution. It is filed as cell-based. The conditions noted are these: ATCC13883, cation-adjusted Mueller-Hinton broth, about 5×10^5 CFU/mL, 35° C., about 18 hours, read-out: MIC Klebsiella pneumoniae ATCC13883. In outline:
as §1

Assay [3] has as its target T1, Pseudomonas aeruginosa LpxC enzyme (Pseudomonas aeruginosa, UniProt P47205).
T1 construct: made in house; host or cells: Escherichia coli
T1 sequence (P47205 1-303): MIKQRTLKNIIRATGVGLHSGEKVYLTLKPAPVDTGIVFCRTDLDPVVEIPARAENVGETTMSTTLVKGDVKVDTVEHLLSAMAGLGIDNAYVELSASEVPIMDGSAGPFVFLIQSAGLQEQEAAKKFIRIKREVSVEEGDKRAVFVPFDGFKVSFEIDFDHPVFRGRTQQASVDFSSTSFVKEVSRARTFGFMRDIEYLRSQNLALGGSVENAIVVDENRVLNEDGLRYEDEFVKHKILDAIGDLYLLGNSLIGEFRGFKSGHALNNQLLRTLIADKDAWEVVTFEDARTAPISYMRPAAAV
Briefly: Inhibitory activity on Pseudomonas aeruginosa LpxC enzyme (fluorescamine method). Type of assay: biochemical. The conditions noted are these: fluorescamine detection; 3.6 nmol/L enzyme, 20 μmol/L substrate, pH 8.0, 60 min. An excerpt: Test Example 1 Evaluation of the Inhibitory Activity on Pseudomonas aeruginosa LpxC Enzyme (Fluoresamine Method)
To assay the activity of Pseudomonas aeruginosa LpxC enzyme, LpxC was reacted with its substrate, UDP-3-O-(R-3-hydroxydecanoyl)-N-acetylglucosamine, and the amount of the reaction product was quantified by the amino groups present in the product.
Specifically, to 3.6 nmol/L Pseudomonas aeruginosa LpxC enzyme (as acquired by preparing chromosomal DNA from Pseudomonas aeruginosa, obtaining the Pseudomonas aeruginosa LpxC genes by PCR (polymerase chain reaction) using LpxC specific primer, and incorporating the genes into a vector, followed by expression using Escherichia coli), 20 μmol/L UDP-3-O-(R-3-hydroxydecanoyl)-N-acetylglucosamine (Carbosynth) was added, and the mixture was incubated at room temperature for 60 minutes. This reaction was performed in a 40 mmol/L-HEPES buffer solution (pH 8.0) containing 0.02% Brij 35 and 25 nmol/L-zinc chloride. The reaction was terminated by the addition of 1.0 mg/mL-fluorescamine dissolved in a solvent obtained by mixing an equal amount of acetonitrile and dimethylformamide with the reaction mixture, and then, a 0.2 mol/L-sodium phosphate buffer solution (pH 8.0) was added thereto, and the amount of the reaction product was detected at an excitation wavelength/fluorescence wavelength=390 nm/495 nm. An inhibition curve was obtained by performing the aforementioned reaction in the presence of various concentrations of test compounds. From this inhibition curve, the concentration of test compound at which the amount of the reaction product was suppressed by 50% (IC50 value) was determined, which was used as an index for the inhibitory activity on Pseudomonas aeruginosa LpxC enzyme.

Assay [4] addresses T2, Escherichia coli LpxC enzyme (Escherichia coli, UniProt P0A725).
T2 construct: made in house; host or cells: Escherichia coli
T2 sequence (P0A725 1-305): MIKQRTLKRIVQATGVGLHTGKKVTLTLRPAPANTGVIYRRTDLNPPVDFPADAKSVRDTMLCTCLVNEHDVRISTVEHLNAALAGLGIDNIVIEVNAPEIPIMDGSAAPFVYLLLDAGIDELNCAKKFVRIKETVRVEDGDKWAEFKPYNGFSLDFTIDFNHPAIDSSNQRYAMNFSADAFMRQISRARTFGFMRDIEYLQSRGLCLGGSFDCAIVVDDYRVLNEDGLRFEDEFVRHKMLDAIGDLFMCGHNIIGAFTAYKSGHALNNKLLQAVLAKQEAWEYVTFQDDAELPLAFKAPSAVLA
Briefly: Inhibitory activity on Escherichia coli LpxC enzyme (LCMS method). Type of assay: biochemical. An excerpt: Test Example 3 Evaluation of the Inhibitory Activity on Escherichia coli LpxC Enzyme (LCMS Method)
To assay the activity of Escherichia coli LpxC enzyme, LpxC was reacted with its substrate, UDP-3-O-(R-3-hydroxymyristoyl)-N-acetylglucosamine, and the amount of the reaction product was quantified by liquid chromatography tandem mass spectrometry.
Specifically, to 3.1 nmol/L Escherichia coli LpxC enzyme (as acquired by preparing chromosomal DNA from Escherichia coli, obtaining the Escherichia coli LpxC genes by PCR (polymerase chain reaction) using LpxC specific primer, and incorporating the genes into a vector, followed by expression using Escherichia coli), 20 μmol/L UDP-3-O-(R-3-hydroxymyristoyl)-N-acetylglucosamine (Alberta) was added, and the mixture was incubated at room temperature for 120 minutes. This reaction was performed in a 40 mmol/L-2-morpholinoethanesulfonic acid buffer solution (pH 6.5) containing 0.02% Brij 35, 25 nmol/L-zinc chloride, and 80 μmol/L-dithiothreitol. The reaction was terminated by the addition of acetonitrile containing 25 μmol/L-UDP-N-acetylglucosamine as an internal standard to the reaction mixture. Centrifugation was performed and the amount of the substrate and the reaction product in the supernatant was detected by liquid chromatography tandem mass spectrometry. An inhibition curve was obtained by performing the aforementioned reaction in the presence of various concentrations of test compounds. From this inhibition curve, the concentration of test compound at which the amount of the reaction product was suppressed by 50% (IC50 value) was determined, which was used as an index for the inhibitory activity on Escherichia coli LpxC enzyme.

Assay [5] relates to Escherichia coli strain ATCC25922. The experiment in a line: Antimicrobial activity, MIC by broth microdilution. It is filed as cell-based. The conditions noted are these: ATCC25922, 18 h, cation-adjusted Mueller-Hinton broth, about 5×10^5 CFU/mL, 35° C., about 18 hours, read-out: MIC Escherichia coli ATCC25922. Put shortly:
as §1

The mark [6] stands for this setting: LC-MS/MS detection, 3.1 nmol/L enzyme, 20 μmol/L substrate, pH 6.5, 120 min, read-out: IC50 (inhibitory activity on Escherichia coli LpxC enzyme, LCMS method).

`C[C@H](O)c1nccn1Cc1cc(-c2ccc(C#CC3CC3CN)cc2)on1` (stereo in doubt) [Compound 8, (1S)-1-(1-{[5-(4-{[trans-2-(aminomethyl)cyclopropyl]ethynyl}phenyl)-1,2-oxazol-3-yl]methyl}-1H-imidazol-2-yl)ethan-1-ol]: the results for the MIC in assay [1] and in assay [2] were 16 µg/mL (≈ 44.1 µM) and 64 µg/mL (≈ 177 µM), respectively. Further, the IC50 was determined as 30.5 nM in assay [3] and 67.8 nM in assay [4] (setting [6]).
`C[C@H](O)c1nccn1Cc1cc(-c2ccc(C#CC34CC(N)(C3)C4)cc2)on1` [Compound 17, (1S)-1-{1-[(5-(4-[(3-aminobicyclo[1.1.1]pentan-1-yl)ethynyl]phenyl}-1,2-oxazol-3-yl)methyl]-1H-imidazol-2-yl}ethan-1-ol]: the values for the MIC in assay [1], in assay [5] and in assay [2] were 16 µg/mL (≈ 42.7 µM), 0.5 µg/mL (≈ 1.34 µM) and 0.5 µg/mL (≈ 1.34 µM), respectively. Besides, the IC50 is 13.8 nM in assay [3] and 49.1 nM in assay [4] (setting [6]).
With `C[C@H](O)c1nccn1[C@H](CN)c1cc(-c2ccc(C#CCCCO)cc2)on1` [Compound 18, 5-(4-{3-[(1R)-2-Amino-1-{2-[(1S)-1-hydroxyethyl]-1H-imidazol-1-yl}ethyl]-1,2-oxazol-5-yl}phenyl)pent-4-yn-1-ol], the minimum inhibitory concentration (MIC) in assay [1] was 16 µg/mL (≈ 42.1 µM); in assay [2], 8 µg/mL (≈ 21 µM). For the same compound, the IC50 worked out at 6.04 nM in assay [3] and 69.7 nM in assay [4].
For `C[C@H](O)c1nccn1Cc1cc(-c2ccc(C#CC34CC(N)(C3)C4)cc2)no1` [Compound 28, (1S)-1-{1-[(3-(4-[(3-aminobicyclo[1.1.1]pentane-1-yl)ethynyl]phenyl}-1,2-oxazol-5-yl)methyl]-1H-imidazol-2-yl}ethan-1-ol], the values for the MIC in assay [1], in assay [5] and in assay [2] were 64 µg/mL (≈ 171 µM), 0.5 µg/mL (≈ 1.34 µM) and 2 µg/mL (≈ 5.34 µM), respectively. The IC50 in assay [4] (setting [6]) was 64.6 nM.
For `C[C@H](O)c1nccn1Cc1cc(-c2ccc(C#CC3(N)CCOCC3)cc2)on1` [Compound 29, (1S)-1-{1-[(5-{4-[(4-aminooxan-4-yl)ethynyl]phenyl}-1,2-oxazol-3-yl)methyl]-1H-imidazol-2-yl}ethan-1-ol], in that order: more than 128 µg/mL, 64 µg/mL (≈ 163 µM), 128 µg/mL (≈ 326 µM) and more than 3000 nM.
For `C[C@H](O)c1nccn1Cc1cc(-c2ccc(C#CC(C)(C)N)cc2)on1` [Compound 33], the MIC was more than 128 µg/mL in assay [1], 32 µg/mL (≈ 91.3 µM) in assay [5] and 64 µg/mL (≈ 183 µM) in assay [2]. Also, in assay [4] (setting [6]), the IC50 was more than 3000 nM.
Take `C[C@H](O)c1nccn1Cc1cc(-c2ccc(C#CC3(N)COC3)cc2)on1` [Compound 40, (1S)-1-{1-[(5-(4-[(3-aminooxetan-3-yl)ethynyl]phenyl}-1,2-oxazol-3-yl)methyl]-1H-imidazol-2-yl}ethan-1-ol]: the values for the MIC in assay [1], in assay [5] and in assay [2] were more than 128 µg/mL, 16 µg/mL (≈ 43.9 µM) and 32 µg/mL (≈ 87.8 µM), respectively. Moreover, the IC50 in assay [4] (setting [6]) is 140 nM.
For `C[C@H](O)c1nccn1Cc1cc(-c2ccc(C#C[C@@H]3[C@H]4CN(C(=O)CCN)C[C@@H]34)cc2)on1` [Compound 61, 3-Amino-1-[(1R,5S,6s)-6-({4-[3-({2-[(1S)-1-hydroxyethyl]-1H-imidazol-1-yl}methyl)-1,2-oxazol-5-yl]phenyl}ethynyl)-3-azabicyclo[3.1.0]hexan-3-yl]propan-1-one], the MIC in assay [1] was 4 µg/mL (≈ 8.98 µM); in assay [5] it was 8 µg/mL (≈ 18 µM); in assay [2], 16 µg/mL (≈ 35.9 µM). Besides, the IC50 in assay [4] (setting [6]) is less than 37 nM.
With `C[C@H](O)c1nccn1Cc1cc(-c2ccc(C#C[C@@H]3[C@H]4CN(C(=O)CC(C)(C)N)C[C@@H]34)cc2)on1` [Compound 62, 3-amino-1-[(1R,5S,6s)-6-((4-[3-((2-[(1S)-1-hydroxyethyl]-1H-imidazol-1-yl}methyl)-1,2-oxazol-5-yl]phenyl)ethynyl)-3-azabicyclo[3.1.0]hexan-3-yl]-3-methylbutan-1-one], the MIC in assay [1] stood at 8 µg/mL (≈ 16.9 µM); in assay [5] it was 8 µg/mL (≈ 16.9 µM); in assay [2] it was 32 µg/mL (≈ 67.6 µM). The IC50 in assay [4] (setting [6]) is less than 37 nM.
With `Cc1cnc([C@H](C)O)n1Cc1cc(-c2ccc(C#CC3(N)CC3)cc2)on1` [Compound 64, (1S)-1-{1-[(5-{4-[(1-Aminocyclopropyl)ethynyl]phenyl}-1,2-oxazol-3-yl)methyl]-5-methyl-1H-imidazol-2-yl}ethan-1-ol], the MIC in assay [1] was more than 128 µg/mL; in assay [5] it was 2 µg/mL (≈ 5.52 µM); in assay [2], 4 µg/mL (≈ 11 µM). The same compound returned an IC50 in assay [4] of 176 nM.
In the case of `C[C@H](O)c1nccn1[C@H](CN)c1cc(-c2ccc(C#C[C@H]3C[C@H](O)C3)cc2)on1` [Compound 70, trans-3-[(4-{3-[(1R)-2-Amino-1-{2-[(1S)-1-hydroxyethyl]-1H-imidazol-1-yl}ethyl]-1,2-oxazol-5-yl}phenyl)ethynyl]cyclobutan-1-ol], the MIC in assay [1] is 4 µg/mL (≈ 10.2 µM); in assay [5], 0.25 µg/mL (≈ 0.637 µM); in assay [2], 1 µg/mL (≈ 2.55 µM). In assay [4] (setting [6]), the IC50 was less than 37 nM.
